In data set [1] the test system is E. coli CFT073 adhesion to human urinary bladder cells (T24). The data set is described as follows: In vitro adhesion test (ADH): adhesion of E. coli to human bladder cells, cfu plate count. Format: cell-based. The following applies: for reduction of adhesion of E. coli CFT073 on urinary bladder cells: 1 h, adhesion <50% of control = significant, FIG. 1C. Here is the method: In Vitro Adhesion Test (ADH)—Host-Pathogen-Interaction Assessed by In Vitro Adhesion to Human Cells Adhesion of E. coli to bladder epithelium was established in cell culture. Upon exposure to E. coli an epithelial cell detachment was observed, in a manner similar to in vivo exfoliation. The test was miniaturized by growing the epithelium cell cultures in 96-well plates instead of the classical 24-well plates.
The test samples were added prior to the start of the adhesion process. Bladder cells grown to confluence in 96-well plates were exposed to E. coli (50 μL of E. coli at 1.4*10^7 cfu/mL in each well) for 1 h. After 1 h, non-adhered E. coli were rinsed off and the adhered E. coli were detached and enumerated by plate counting colony-forming-units (cfu). Enumeration was automatized using a spiral plate count apparatus which further improved the test-variability.
The E. coli adhesion test was run in absence (given as 100% adhesion) and presence of different concentrations of the agents. […] Human cytotoxicity measurements of the mitochondrial activity (MTT) excluded side-effects of the agents.
Results are presented in FIG. 1C where relative adhesion (ADH) is expressed in percent (no inhibition control=100%; buffer was used instead of the treatments). All adhesion values<50% are defined as a significant inhibition.
Anti-adhesive effect is measured in vitro (standard method) using centrifuged extracts (Fu1) of Filipendula ulmaria (F) and Epilobium parviflorum (E) using human epithelial bladder cells (T24 ATCC® HTB-4™ Homo sapiens urinary bladder cell lines).

The subject of data set [2] is E. coli. As to the kind of experiment: In vitro antibacterial assay (MIC), E. coli growth in solution in 96-well plates, plate counting. Format: cell-based. The following applies: for MIC: Escherichia coli. On the procedure:
E. coli growth in solution was measured in 96-well plates. Absence and presence of different concentrations of the test agent during exponential growth determined the MIC (minimal inhibitory concentration) value. E. coli enumeration was by the plate-counting method (ufc) as described above.

A short description of data set [3]: Analysis of salicylic acid and its metabolites in urines of treated mice (HPLC-MRM-MS). The following applies: for share of ingested SA found in the urines in this form: Filipendula ulmaria extract with 1.3% SA, total 40 mg in 8 doses over 24 h, oral. Format: in vivo. Here is the method:
A: Comparison of RT from analytical standards of salicylic acid (SA) (1) and its metabolites […] (DHBA) (2) and salicyluric acid (SUA) (3) and peaks found in urine samples collected from the group treated with Filipendula ulmaria extract (Fil). Analysis was performed on a SunFire™ C18 ([…], 3.0 mm×150 mm) column (Waters). 5% MeCN (A) and MeCN (B) both containing 0.1% of formic acid were used as mobile phase. A gradient of 0 to 100% B in 20 min was applied at a flow rate of 0.8 mL/min. B: Concentration, amounts (in samples collected over a 3-hour-period) and cumulative amounts of salicylic acid (SA) (1) and its metabolites 2,3-dihydroxybenzoic acid (DHBA) (2) and salicyluric acid (SUA) (3) found in urine samples collected from groups treated with Filipendula ulmaria extract (F). Cumulative amounts are the cumulated amounts of the respective compounds in the urine over time up to the indicated timepoint. Numbers on x-axis indicate collection time. Analysis was performed by HPLC-MRM-MS using the chromatographic conditions described in A.
The urines collected from control groups as described in Example 3 were compared against urines collected from mice treated with different combinations of plant extracts. The urines were analyzed using HPLC-UV/MS on a SunFire C18 column column. 5% MeCN (A) and MeCN (B) both containing 0.1% of formic acid were used as mobile phase. A gradient of 0 to 100% B in 20 min was applied at a flow rate of 0.8 mL/min. MS scans were recorded in positive and negative ion modes (ESI+/−). Major additional peaks in the groups treated with a mixture of Filipendula ulmaria-Epilobium parviflorum were identified as salicylic acid (SA) (1), 2,3-dihydroxybenzoic acid (DHBA) (2), and salicyluric acid (SUA) (3). FIG. 3A compares the RT from analytical standards of salicylic acid (SA) (1) and its metabolites salicyluric acid (SUA) ([…]) and 2,3-dihydroxybenzoic acid (DHBA) (2), and peaks found in urine samples collected from groups treated with Filipendula extracts. The exact mass of the three molecules was confirmed using high-resolution mass spectrometry. Further, the three identified metabolites were quantified in the urine samples by MRM—with the following transitions (m z): 136.5→65.0, 136.5→92.9 (SA); 152.9→108.9, 152.9→80.9 (DHBA); 194.0→150.0, 194.0→92.9 (SUA) and pure analytical standards that were diluted in urine from negative controls for the calibration curve.
The amounts of SA, SUA et DHBA were quantified in the urine of mice after absorption of an extract of Filipendula ulmaria containing 1.3% of SA at a total dose of 40 mg divided in 8 equal doses over 24 h as described above (Example 3, in-vivo efficacy studies).

Data set [4] relates to E. coli CFT073. As to the kind of experiment: In vivo UTI mouse model: living E. coli in bladder homogenates (bladder adhesion). Further details: species or system mice. The source says:
(§1) An in vivo test of UTI (urinary tract infection) was established and implemented for the identification of active plant extracts and compounds. […] which were age matched females were adapted to the clean, non-septic laboratory conditions. The experiment started with a 2 days nutrition enriched by glucose in order to facilitate the subsequent UTI infection. Each compound, or plant extract was then applied at various concentrations by 8 consecutive intestinal ingestions by gavage-devices over the duration of 24 h. Each ingestion comprised a volume of 100 μL solution. During these 24 h the mice were hold in metabolic cages. The urine was collected every 3 h to analyze diuresis effects. For the subsequent UTI infection*, the isolate E. coli CFT073 (commercially available at DSM, originating from human UTI) was applied trans-urethral into the bladder and incubated in vivo for a 3 h duration and free movements in normal cages. Mice were euthanized and living E. coli were enumerated in bladder homogenates (homogenization of 12 bladder for living bacteria counting (cfu)), and organ morphology were assessed by histology microscopy. *UTI Infection with 50 μL of E. coli (CFT073) containing […] inoculated in the bladder (in another experiment, the in vivo infection was run similarly, but with slightly less germs 3.3×10^6 or 5×10^6 germs per inoculation).
The in-vivo anti-adhesion effect of the various substances and extracts of the invention were tested in vivo using a mouse model as described above by giving orally 100 μL of test substance every 3 hours for 24 h prior to inoculating E. coli in the bladder 3 h before measuring E. coli in the bladder. At the end of each assay, mice are euthanized, and their bladder homogenized for E. coli measurements.

Data set [5] can be described thus: Diuretic effects: urine collected over 24 h in the mouse model. The following applies: 68.8 μg/100 μL orally every 3 h; urine of 6 mice over 24 h. Format: in vivo.
Text: as §1, with “For the subsequent UTI infection*, the isolate E. coli CFT073 (commercially available at DSM, originating from human UTI) was applied trans-urethral into the bladder and incubated in vivo for a 3 h duration and free movements in normal cages.” left out
The urines were collected from control groups and from mice treated with different agents. […] Each value has been calculated from the total urine collected from 6 mice.

Setting [6] is: E. coli, 24 h exponential growth, pure substances and cranberry control.
The mark [7] stands for this setting: as given in the legend of FIG. 1F, read-out: prevention of growth of E. coli (MIC).
Where [8] appears, read: CHHeNCrL (so in the source); i.e. C3H/HeNCrl), mouse, in vivo.

We go through 5 compounds from patent publication US20250152609A1, “SALICYLIC ACID COMPOSITIONS AND USES THEREOF” (priority 2022, published 2025).

In brackets after ≈: the same amount, converted by molar mass. Read-outs that look alike come from different tables or passages of the source.

On to `O=C(O)c1cccc(O)c1O` [2,3-Dihydroxybenzoic acid, 2,3-dihydroxybenzoic acid], for which the “reduction of adhesion of E. coli CFT073 on urinary bladder cells” value in data set [1] (2.5 mg/mL) and in data set [1] (5 mg/mL) was “an effect” throughout. The “Observation of microbial culture” value in data set [2] (0.3125 mg/mL, 24 h) was “growth”; in data set [2] (0.625 mg/mL, 24 h) it was “growth *”; in data set [2] (1.25 mg/mL, 24 h) it was “no growth”; in data set [2] (2.5 mg/mL, 24 h), “no growth”; in data set [2] (5 mg/mL, 24 h) it was “no growth”. Besides, the “MIC (minimal inhibitory concentration)” value in data set [2] (setting [6]) was “MIC at 1.25 mg/mL”; in data set [2] (E. coli, 24 h exponential growth, pure substances and cranberry control, listed as 2), 5000 µg/mL (≈ 32.4 mM). Further, in data set [2] (setting [7]), the MIC worked out at 2500 µg/mL (≈ 16.2 mM). Also, in data set [3] (setting [8]), the cumulated amounts present in the urine stood at 68 µg.
Turning to `O=C(O[C@H]1[C@@H]2OC(=O)c3cc(O)c(O)c(O)c3-c3c4cc(c(O)c3O)Oc3c(cc(O)c(O)c3O)C(=O)O[C@H]3C(O)O[C@@H]5COC(=O)c6cc(O)c(O)c(O)c6-c6c(cc(c(O)c6O)Oc6c(cc(O)c(O)c6O)C(=O)O[C@H]1C(O)O[C@@H]2COC4=O)C(=O)O[C@H]5[C@@H]3OC(=O)c1cc(O)c(O)c(O)c1)c1cc(O)c(O)c(O)c1` (stereo partly shown) [Oenothein B], the “number of adhered bacteria E. coli lower than in the controls” value in data set [4] (0.065 mg/100 mL, inoculation 3.28×5×10^6 cfu) was 75.12%. Besides, the “Observation of microbial culture” value in data set [2] (0.65 mg/mL) is listed as “growth”; in data set [2] (1.3 mg/mL) it was “no growth”; in data set [2] (1.9 mg/mL), “no growth”; in data set [2] (2.6 mg/mL) it was “no growth”; in data set [2] (3.25 mg/mL) it was “no growth”. Moreover, in data set [2] (setting [6]), the “MIC (minimal inhibitory concentration)” value is “MIC at 1.3 mg/mL”. Also, the MIC in data set [2] (24 h, read-out: MIC (minimal inhibitory concentration)) was determined as 1300 µg/mL (≈ 0.829 mM); in data set [2] (read-out: prevention of growth of E. coli (MIC)), 1300 µg/mL (≈ 0.829 mM). For the same compound, the “identification of the compound and its metabolites by LC-MS in the collected urine samples” value in data set [3] (mouse, in vivo, po) is “not identified”.
As for `O=C(O)c1ccccc1O` [Salicylic acid, salicylic acid], the “reduction of adhesion of E. coli CFT073 on urinary bladder cells” value in data set [1] (1.25 mg/mL), in data set [1] (2.5 mg/mL) and in data set [1] (5 mg/mL) was “adhesion reduction efficacy” each time. Further, in data set [1] (for 1 hour), the “concentration necessary for inhibition of E. coli adhesion to human bladder epithelium” value is 2.5 mg/mL. Besides, the “inhibitory effect on the bacterial infection (adhesion)” value in data set [4] (0.05 mg/100 μL by gavage 8 times in 24 h, 5×10^7 cfu E. coli trans-urethral, n=6 mice) is listed as −60%; in data set [4] (3.3×10^6 cfu trans-urethral), −61.3%. For the same compound, the “Observation of microbial culture” value is listed as “growth” in data set [2] (0.3125 mg/mL, 24 h); “growth” in data set [2] (0.625 mg/mL, 24 h); “growth” in data set [2] (1.25 mg/mL, 24 h); “growth” in data set [2] (2.5 mg/mL, 24 h); “no growth” in data set [2] (5 mg/mL, 24 h). Further, in data set [2] (setting [6]), the “MIC (minimal inhibitory concentration)” value is “MIC at 5 mg/mL”. Also, the MIC in data set [2] (24 h, E. coli, 24 h exponential growth, pure substances and cranberry control, read-out: MIC (minimal inhibitory concentration)) turned out to be 5000 µg/mL (≈ 36.2 mM); in data set [2] (setting [7]), 5000 µg/mL (≈ 36.2 mM). In data set [3] (setting [8]), the cumulated amounts present in the urine was determined as 84 µg. Further, in data set [3] (mice), the “share of ingested SA found in the urines in this form” value is recorded as 5.4%.
Consider `O=C(O)CNC(=O)c1ccccc1O` [Salicyluric acid, salicyluric acid], for which the “Observation of microbial culture” value in data set [2] (0.3125 mg/mL, 24 h) is on record as “growth”; in data set [2] (0.625 mg/mL, 24 h) it was “growth”; in data set [2] (1.25 mg/mL, 24 h), “growth”; in data set [2] (2.5 mg/mL, 24 h) it was “growth *”; in data set [2] (5 mg/mL, 24 h), “no growth”. For the same compound, the “MIC (minimal inhibitory concentration)” value in data set [2] (setting [6]) is “MIC at 5 mg/mL”; in data set [2] (E. coli, 24 h exponential growth, pure substances and cranberry control, listed as 3), 1250 µg/mL (≈ 6.4 mM). In data set [2] (setting [7]), the MIC turned out to be 2500 µg/mL (≈ 12.8 mM). For the same compound, in data set [3] (mice, FIG. 3B), the cumulated amounts present in the urine came to 707 µg. Moreover, in data set [3] (mice), the “share of ingested SA found in the urines in this form” value came out at 32.0%.
Regarding quercetin-4′-O-glucoside [Spiraeoside], in data set [5], the “% variation versus Negative Control (water), urine” value is on record as −9.10% and the “% variation versus Positive Control (Cranberry), urine” value is given as −4.20%.
